Assay results reported in patent US9518107B2, “Pharmaceutical compositions containing polypeptides derived from α-1 antitrypsin and methods of use thereof” (YISSUM RESEARCH DEVELOPMENT COMPANY OF THE HEBREW …, priority 2010, dated 2016).

Tests used:
Female C57BL/6 mice = experiment: Experimental autoimmune encephalitis (EAE), MOG 35-55 induced, neurological score; assay type: in vivo; conditions: for neurological symptoms (neurological score 0 to 6): i.p. 1 μg/kg, thrice a week, from four days after MOG immunization, FIG. 3
Experimental: (§1) Female C57BL/6 mice were injected subcutaneously into 4 sites on the back, adjacent to each of the forelimbs and hindlimbs (total amount 200 μl) with a myelin oligodendritic glycoprotein (MOG) 35-55 fragment emulsified with complete Freund's adjuvant. Thereafter, each animal was i.p. injected with pertusis toxin (PTX; 200 ng/mouse) in PBS and an additional
PTX injection was repeated 2 days later, which is a standard protocol for initiating experimental autoimmune encephalomyelitis (EAE) in mice. UBE polypeptide (SEQ ID NO:2) was intraperitoneally (i.p.) injected (0.3 μg/kg, thrice a week) five days after MOG immunization (day of onset of symptoms). The animals were evaluated for neurological score from 0 (no effect) to 6 (severe neurological symptoms including paralysis). Results are the mean±SE of neurological score (sum of all scores divided by the number of animals in each experimental group) at each of the indicated time intervals after MOG injection.
as §1, with “additional PTX injection was repeated 2 days later. Four days after MOG immunization, each mouse received i.p. injections (1 μg/kg, thrice a week) of each of the following polypeptides:” for “additional”
The animals were evaluated for neurological score from 0 (no effect) to 6 (severe neurological symptoms including paralysis). Results are the mean±SE of neurological score (sum of all scores divided by the number of animals in each experimental group) at each of the indicated time intervals after immunization.

arthritic mice = experiment: Collagen type II induced arthritis, joint swelling; assay type: in vivo; conditions: 1 μg/kg thrice a week, from five days after second immunization; FIG. 16
Experimental: Chick collagen type II (2.0 mg) was incubated overnight in 0.01 M acetic acid (0.9 ml) at 4° C. The resulting solution was emulsified with equal volume (1.0 ml) of […] Freund's Adjuvant containing 5.0 mg heat-killed Mycobacterium tuberculosis. Thereafter, the animal was injected intradermally in the tail base with 100 μl of the emulsion and an additional immunization was repeated 21 days later. Five days later, UBE or UBE1 polypeptide were administered (1 μg/kg thrice a week). The animals were evaluated for the difference in joint thickness (mm) between the indicated time intervals and prior to immunization.

severe sepsis = conditions: decrease from about 31% without treatment; further trials failed to replicate; cited from earlier work

## MPPIVRFDHPFLFIIFEEHTQSPLFVGKVVDPTHK (listed as Mus musculus) [UBE-N, peptide corresponding to residues 379-413 of Mus musculus alpha-1-antitrypsin (serpin a1c)]
Female C57BL/6 mice
  neurological symptoms (neurological score 0 to 6): reduced the neurological symptoms

## SMPPIVRFDHPFLFIIFEEHTQSPLFVGKVVDPTH (listed as Mus musculus) [UBE-C, peptide corresponding to residues 378-412 of Mus musculus alpha-1-antitrypsin (serpin a1c)]
Female C57BL/6 mice
  neurological symptoms (neurological score 0 to 6): reduced the neurological symptoms

## YSMPPIVRFDHPFLFIIFEEHTQSPLFVGKVVDPTHK (listed as Mus musculus) [UBE1, peptide corresponding to residues 377-413 of Mus musculus alpha-1-antitrypsin (serpin a1c)]
Arthritic mice
  joint swelling (difference in joint thickness): reduction in joint swelling
Female C57BL/6 mice; summary statement, b192 (FIG. 3) does not name UBE1
  neurological damage in animal models of multiple sclerosis: highly effective in eliminating neurological damage

## drotrecogin alfa
Severe sepsis
  mortality in severe sepsis: about 25%
